Data reported in BindingDB's records for patent US20250051323 (Richter Gedeon, 2025).

Each compound was assayed against T1, GABA-A receptor; alpha-5/beta-3/gamma-2 (Homo sapiens, UniProt P18507+P28472+P31644) (assay: Binding Assay).
T1 sequence (P31644 whole entry): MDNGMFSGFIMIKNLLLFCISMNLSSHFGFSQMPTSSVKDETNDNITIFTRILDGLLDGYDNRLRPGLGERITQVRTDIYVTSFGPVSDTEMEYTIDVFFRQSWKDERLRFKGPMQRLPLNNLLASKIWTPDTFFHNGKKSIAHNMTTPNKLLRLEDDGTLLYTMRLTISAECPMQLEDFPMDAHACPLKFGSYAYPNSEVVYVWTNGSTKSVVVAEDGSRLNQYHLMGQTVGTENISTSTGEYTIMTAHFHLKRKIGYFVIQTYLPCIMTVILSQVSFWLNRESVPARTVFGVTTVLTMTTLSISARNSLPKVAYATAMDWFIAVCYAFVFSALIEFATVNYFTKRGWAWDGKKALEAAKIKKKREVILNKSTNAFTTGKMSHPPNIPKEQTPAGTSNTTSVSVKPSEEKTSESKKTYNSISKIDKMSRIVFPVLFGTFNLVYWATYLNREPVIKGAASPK
T1 sequence (P18507 whole entry): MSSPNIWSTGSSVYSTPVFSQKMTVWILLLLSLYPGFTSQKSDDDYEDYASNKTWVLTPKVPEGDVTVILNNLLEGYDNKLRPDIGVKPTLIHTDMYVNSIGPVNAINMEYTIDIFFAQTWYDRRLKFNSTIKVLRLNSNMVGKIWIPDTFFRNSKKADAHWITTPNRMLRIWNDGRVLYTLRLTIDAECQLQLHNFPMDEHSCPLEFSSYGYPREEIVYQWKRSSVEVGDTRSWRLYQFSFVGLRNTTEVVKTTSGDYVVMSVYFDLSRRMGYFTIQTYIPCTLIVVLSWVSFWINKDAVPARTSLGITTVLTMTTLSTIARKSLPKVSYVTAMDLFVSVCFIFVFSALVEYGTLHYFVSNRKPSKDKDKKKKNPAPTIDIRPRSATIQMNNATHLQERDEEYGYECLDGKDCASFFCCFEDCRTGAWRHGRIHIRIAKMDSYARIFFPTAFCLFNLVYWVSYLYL
T1 sequence (P28472 whole entry): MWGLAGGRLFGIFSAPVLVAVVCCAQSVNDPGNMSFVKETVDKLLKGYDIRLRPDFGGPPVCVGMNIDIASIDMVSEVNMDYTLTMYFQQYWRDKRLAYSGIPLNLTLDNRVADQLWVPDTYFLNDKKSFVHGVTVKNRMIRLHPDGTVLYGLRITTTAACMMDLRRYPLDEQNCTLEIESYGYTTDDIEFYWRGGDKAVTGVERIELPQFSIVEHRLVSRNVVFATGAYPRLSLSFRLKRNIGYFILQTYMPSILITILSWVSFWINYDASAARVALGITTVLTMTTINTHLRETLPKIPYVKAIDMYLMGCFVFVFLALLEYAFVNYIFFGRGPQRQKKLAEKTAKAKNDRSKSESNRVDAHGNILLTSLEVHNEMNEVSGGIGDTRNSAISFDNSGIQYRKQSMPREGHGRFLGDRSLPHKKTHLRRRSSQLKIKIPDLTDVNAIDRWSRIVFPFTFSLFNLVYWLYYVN
Method: Receptor binding assays were performed in 96-well format in deep-well plates. For each 96-well plate one ampule of membrane homogenate was thawed and diluted in binding buffer (50 mM Tris pH=7.4, 100 mM KCl) and 200 μL was dispensed into each well. Radioligand [3H]Ro151788 (Perkin Elmer: NET757250UC) was prepared in binding buffer and added to each well in 50 μL volume to give final concentration of 0.5 nM. Test compounds in suitable concentration(s) were added in additional 50 μL. The final assay volume was 300 μL. Incubation was carried out for 60 minutes at 4° C. For non-specific binding 10 μM unlabeled diazepam was used. After incubation samples were filtered over UniFilter GF/B™ using Filtermate Harvester (Perkin Elmer) and washed with 5×1 mL binding buffer. The plate was dried at 40° C. for an hour and 40 μL Microscint (Perkin Elmer) scintillation cocktail was added to each well. The plate was read in Microbeta (Perkin Elmer).

| Structure (SMILES) | Ki [nM] |
| --- | --- |
| Cc1ccc(-c2noc(C)c2COc2cc3c(cn2)CN(C2CCC2)CC3)cn1 [US20250051323, Example 4] | 4.5 |
| Cc1onc(-c2ccc(C(F)(F)F)nc2)c1COc1cc2c(nn1)CN(C1CCOC1)CC2 (stereo not drawn) [US20250051323, Example 18] | 12.7 |
| Cc1nnn(-c2ccc(C(F)(F)F)nc2)c1COc1cc2c(cn1)CN(CC1CCS(=O)(=O)C1)CC2 (stereo not drawn) [US20250051323, Example 36] | 53.5 |
| Cc1nnn(-c2ccc(C(F)(F)F)nc2)c1COc1cc2c(cn1)CN(c1cccnc1)CC2 [US20250051323, Example 37] | 37.9 |
| COc1ccc(-n2nnc(C)c2COc2cc3c(cn2)CN(C2CCOCC2)CC3)cn1 [US20250051323, Example 40] | 28.5 |
| Cc1ccc(-n2nnc(C)c2COc2cc3c(cn2)CN(CC(C)C)CC3)cn1 [US20250051323, Example 41] | 61.5 |
| Cc1ccc(-n2nnc(C)c2COc2cc3c(cn2)CN(C2(C(C)C)COC2)CC3)cn1 [US20250051323, Example 42] | 28 |
| CCC1(N2CCc3cc(OCc4c(C)nnn4-c4ccc(C)nc4)ncc3C2)COC1 [US20250051323, Example 43] | 19 |
